System: HEK293T nuclear lysates
Assay: SILAC‐based pull‐down proteomics H4K5me2/H4K5 (probes 7/5)
Type: binding, human
Details: for E6 log2 (H4K5me2/H4K5): run E6; for F6 log2 (H4K5me2/H4K5): run F6

## probe 7: H4K5me2 peptide probe with photo‐arginine R(dz) and K(biotin) (SGRGKGGKGLGKGGK; photo-arginine R(dz) at 3; dimethyl-lysine at 5; K(biotin) at 15)
365 nm UV 30 min, streptavidin enrichment, n = 2
  proteins recruited (SILAC proteomics H4K5me2/H4K5): could recruit L3MBTL2
Protein A0A0U1RR22 PACSIN2
  E6 log2 (H4K5me2/H4K5): 0.1208
  F6 log2 (H4K5me2/H4K5): -0.1109
Protein A0A2R8Y855 SMARCE1
  E6 log2 (H4K5me2/H4K5): 0.07695
  F6 log2 (H4K5me2/H4K5): 0.03141
Protein A0A087WY61 NUMA1
  E6 log2 (H4K5me2/H4K5): 0.1401
  F6 log2 (H4K5me2/H4K5): 0.3015
Protein A6NLN1 PTBP1
  E6 log2 (H4K5me2/H4K5): 0.07938
  F6 log2 (H4K5me2/H4K5): -0.02591
Protein B4DY09 ILF2
  E6 log2 (H4K5me2/H4K5): 0.08111
  F6 log2 (H4K5me2/H4K5): 0.1752
Protein B5MCF9 PES1
  E6 log2 (H4K5me2/H4K5): 0.1415
  F6 log2 (H4K5me2/H4K5): 0.1164
Protein E7ETZ4 BZW2
  E6 log2 (H4K5me2/H4K5): 0.1449
  F6 log2 (H4K5me2/H4K5): -0.03577
Protein E9PKG1 PRMT1
  E6 log2 (H4K5me2/H4K5): 0.1534
  F6 log2 (H4K5me2/H4K5): 0.23
Protein H7C3T4 PRDX4
  E6 log2 (H4K5me2/H4K5): 0.1102
  F6 log2 (H4K5me2/H4K5): 0.1589
Protein J3QR09 RPL19
  E6 log2 (H4K5me2/H4K5): 0.1467
  F6 log2 (H4K5me2/H4K5): -0.9956
Protein M0R3F6 SUGP2
  E6 log2 (H4K5me2/H4K5): 0.09539
  F6 log2 (H4K5me2/H4K5): 0.1115
Protein O00567 NOP56
  E6 log2 (H4K5me2/H4K5): 0.1426
  F6 log2 (H4K5me2/H4K5): -0.1862
Protein O14654 IRS4
  E6 log2 (H4K5me2/H4K5): 0.1705
  F6 log2 (H4K5me2/H4K5): -0.09217
Protein O14980 XPO1
  E6 log2 (H4K5me2/H4K5): 0.1332
  F6 log2 (H4K5me2/H4K5): 0.2789
Protein O43663 PRC1
  E6 log2 (H4K5me2/H4K5): 0.1243
  F6 log2 (H4K5me2/H4K5): 0.05206
Protein O43670 ZNF207
  E6 log2 (H4K5me2/H4K5): 0.07954
  F6 log2 (H4K5me2/H4K5): 0.2082
Protein O60216 RAD21
  E6 log2 (H4K5me2/H4K5): 0.09859
  F6 log2 (H4K5me2/H4K5): -0.00427
Protein O60264 SMARCA5
  E6 log2 (H4K5me2/H4K5): 0.1187
  F6 log2 (H4K5me2/H4K5): 0.0006909
Protein O75717 WDHD1
  E6 log2 (H4K5me2/H4K5): 0.1724
  F6 log2 (H4K5me2/H4K5): 0.09518
Protein O95218 ZRANB2
  E6 log2 (H4K5me2/H4K5): 0.07138
  F6 log2 (H4K5me2/H4K5): 0.02934
Protein O95239 KIF4A
  E6 log2 (H4K5me2/H4K5): 0.09061
  F6 log2 (H4K5me2/H4K5): 0.09527
Protein P04843 RPN1
  E6 log2 (H4K5me2/H4K5): 0.0606
  F6 log2 (H4K5me2/H4K5): -0.2414
Protein P08107 HSPA1A
  E6 log2 (H4K5me2/H4K5): 0.1665
  F6 log2 (H4K5me2/H4K5): 0.1744
Protein P11387 TOP1
  E6 log2 (H4K5me2/H4K5): 0.0619
  F6 log2 (H4K5me2/H4K5): 0.02763
Protein P12081 HARS
  E6 log2 (H4K5me2/H4K5): 0.08516
  F6 log2 (H4K5me2/H4K5): -0.01799
Protein P13010 XRCC5
  E6 log2 (H4K5me2/H4K5): 0.1114
  F6 log2 (H4K5me2/H4K5): 0.1089
Protein P17028 ZNF24
  E6 log2 (H4K5me2/H4K5): 0.05262
  F6 log2 (H4K5me2/H4K5): 0.1336
Protein P22314 UBA1
  E6 log2 (H4K5me2/H4K5): 0.1022
  F6 log2 (H4K5me2/H4K5): 0.2143
Protein P26358 DNMT1
  E6 log2 (H4K5me2/H4K5): 0.1405
  F6 log2 (H4K5me2/H4K5): 0.2161
Protein P26641 EEF1G
  E6 log2 (H4K5me2/H4K5): 0.08126
  F6 log2 (H4K5me2/H4K5): 0.1297
Protein P29692 EEF1D
  E6 log2 (H4K5me2/H4K5): 0.1014
  F6 log2 (H4K5me2/H4K5): -0.2527
Protein P31689 DNAJA1
  E6 log2 (H4K5me2/H4K5): 0.1011
  F6 log2 (H4K5me2/H4K5): 0.04124
Protein P46109 CRKL
  E6 log2 (H4K5me2/H4K5): 0.0665
  F6 log2 (H4K5me2/H4K5): -0.05223
Protein P49411 TUFM
  E6 log2 (H4K5me2/H4K5): 0.1754
  F6 log2 (H4K5me2/H4K5): 0.2878
Protein P49792 RANBP2
  E6 log2 (H4K5me2/H4K5): 0.07412
  F6 log2 (H4K5me2/H4K5): 0.1736
Protein P49915 GMPS
  E6 log2 (H4K5me2/H4K5): 0.05379
  F6 log2 (H4K5me2/H4K5): 0.04262
Protein P51991 HNRNPA3
  E6 log2 (H4K5me2/H4K5): 0.1036
  F6 log2 (H4K5me2/H4K5): 0.2517
Protein P52272 HNRNPM
  E6 log2 (H4K5me2/H4K5): 0.1368
  F6 log2 (H4K5me2/H4K5): 0.1164
Protein P52597 HNRNPF
  E6 log2 (H4K5me2/H4K5): 0.1056
  F6 log2 (H4K5me2/H4K5): 0.253
Protein P52948 NUP98
  E6 log2 (H4K5me2/H4K5): 0.08442
  F6 log2 (H4K5me2/H4K5): -0.03692
Protein P55072 VCP
  E6 log2 (H4K5me2/H4K5): 0.1596
  F6 log2 (H4K5me2/H4K5): 0.3874
Protein P62258 YWHAE
  E6 log2 (H4K5me2/H4K5): 0.1303
  F6 log2 (H4K5me2/H4K5): -0.03753
Protein P62979 RPS27A
  E6 log2 (H4K5me2/H4K5): 0.1537
  F6 log2 (H4K5me2/H4K5): -0.5244
Protein P63167 DYNLL1
  E6 log2 (H4K5me2/H4K5): 0.05641
  F6 log2 (H4K5me2/H4K5): 0.2614
Protein P67870 CSNK2B
  E6 log2 (H4K5me2/H4K5): 0.1418
  F6 log2 (H4K5me2/H4K5): -0.3988
Protein P78347 GTF2I
  E6 log2 (H4K5me2/H4K5): 0.1733
  F6 log2 (H4K5me2/H4K5): 0.08348
Protein P78371 CCT2
  E6 log2 (H4K5me2/H4K5): 0.07998
  F6 log2 (H4K5me2/H4K5): 0.282
Protein P84103 SRSF3
  E6 log2 (H4K5me2/H4K5): 0.08043
  F6 log2 (H4K5me2/H4K5): -0.102
Protein P85037 FOXK1
  E6 log2 (H4K5me2/H4K5): 0.1575
  F6 log2 (H4K5me2/H4K5): -0.07311
Protein Q5SY16 NOL9
  E6 log2 (H4K5me2/H4K5): 0.1325

From publication PMC11005723, “Development of Complementary Photo‐arginine/lysine to Promote Discovery of Arg/Lys hPTMs Interactomes” (Advanced Science, 2024)
